Laboratory results as given in patent publication US10242153B2, “Method for determining the risk profile of neoplastic tissue” (NOVAZOI THERANOSTICS, priority 2014, dated 2019).

Key:
[1] = tested on: BT-549 breast cancer cells; settings: BT-549 cells with amplified centrosomes; cited from earlier work
[2] = target: KIFC1 (Homo sapiens, UniProt Q9BW19); settings: ATP-competitive and MT-noncompetitive; cited from earlier work
[3] = tested on: ZR-75-30 cells; experiment: Wound healing assay, ZR-75-30 cells; format: cell-based; settings: aphidicolin-treated cells; control 40 h
Method: (§1) To assess the migratory capacity of aphidicolin treated cells (˜60% cells harboring extra centrosomes) as compared to control cells, a a classical wound healing assay was performed.

[4] = tested on: ZR-75-30 cells; experiment: Boyden chamber invasion assay, ZR-75-30 cells; format: cell-based; settings: aphidicolin-treated cells
Method: Trajectories of 10 cells each were captured over 18 h with 108 images per movie (6 frames/h). Data were analyzed using Volocity3.0 software (Improvision, Coventry, UK), whereby average net displacement, displacement rate and velocity measurements were generated for the identified cell tracks with respect to cell centroids. Quantitation of net displacement (Panel A), displacement rate (Panel B) and track velocity (Panel C) for cells with 1 and >2 centrosomes are shown as bar graphs. […] Panel E depicts a bar graph showing quantitation of migration rate of treated and untreated ZR-75-30 cells in a wound healing assay. Panel F depicts a bar graph showing the number of migrated cells in a Boyden chamber assay performed with aphidicolin-treated (APD) and untreated (C) ZR-75-30 cells.
as §1

[5] = tested on: ZR-75-30 cells; experiment: Induction of extra centrosomes and markers in ZR-75-30 cells by aphidicolin; format: cell-based
Method: Next, centrosome amplification was evaluated to determine the extent to which it directly and independently impacts the migration potential of a mildly aggressive cell line, ZR-75-30. […] In particular, it was of interest to evaluate whether generation of extra centrosomes (by genetic and pharmacological means) impacts migration and invasion kinetics by experimentally inducing centrosome amplification in these cells by aphidicolin treatment (5 μg/ml for 24 h).
Upon treatment with aphidicolin, centrosome amplification was confirmed by immunofluorescence staining for γ-tubulin (green) (data not shown) and changes in γ-tubulin and centrin levels detectable by Western blot analysis.
Accordingly, these cells can be pharmacologically manipulated with aphidicolin to generate extra centrosomes. […] Following aphidicolin wash-out, cells were stained using anti-centrin-2 antibodies to verify extra centrosomes by immunofluorescence confocal microscopy. About ˜60% ZR-75-30 cells generated extra centrosomes (6-8 per cell) and were evaluated for their sensitivity to the three drugs, griseofulvin, bromonoscapine, and PJ34, and compared with parent ZR-75-30 cells with normal centrosomes.

[6] = tested on: MDA-MB-231 breast cancer cells; experiment: Spindle multipolarity and cell death, MDA-MB-231 cells; format: cell-based, human; settings: 18 h, 10 μM
Method: To investigate a possible role for centrosome declustering drugs (such as brominated noscapines) to induce high-grade spindle multipolarity leading to cell death during mitosis, MDA-MB-231 breast cancer cells were treated with brominated noscapine. “Scattering” of amplified centrosomes in MDA-MB-231 breast cancer cells upon treatment with brominated noscapine was observed (data not shown). […] Based upon this metaphasic occurrence of cell death, this caspase-mediated cellular demise reflects a “metaphase catastrophe”.

[7] = tested on: MCF-10A near normal breast epithelial cells; experiment: Spindle multipolarity and cell death, MCF-10A cells; format: cell-based; settings: same concentration (10 μM)

Sequence of KIFC1 (Q9BW19 whole entry): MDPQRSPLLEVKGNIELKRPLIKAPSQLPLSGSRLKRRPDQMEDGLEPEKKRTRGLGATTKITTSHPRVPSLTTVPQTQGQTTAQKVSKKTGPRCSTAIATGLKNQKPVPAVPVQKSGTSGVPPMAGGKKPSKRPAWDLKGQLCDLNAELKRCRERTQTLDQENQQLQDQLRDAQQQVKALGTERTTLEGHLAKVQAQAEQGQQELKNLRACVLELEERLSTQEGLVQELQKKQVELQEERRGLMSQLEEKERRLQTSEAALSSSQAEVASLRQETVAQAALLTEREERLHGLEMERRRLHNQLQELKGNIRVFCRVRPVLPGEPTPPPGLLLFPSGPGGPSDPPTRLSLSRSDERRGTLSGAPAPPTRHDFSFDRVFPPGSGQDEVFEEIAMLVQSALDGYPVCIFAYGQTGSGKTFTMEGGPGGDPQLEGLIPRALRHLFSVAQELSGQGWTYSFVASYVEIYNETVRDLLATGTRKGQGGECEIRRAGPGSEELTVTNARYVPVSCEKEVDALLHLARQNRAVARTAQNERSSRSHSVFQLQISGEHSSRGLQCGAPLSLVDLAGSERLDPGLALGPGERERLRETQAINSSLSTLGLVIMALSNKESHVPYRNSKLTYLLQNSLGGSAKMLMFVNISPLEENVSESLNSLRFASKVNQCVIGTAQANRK
Sequence of KIFC1 (P68363 whole entry partner): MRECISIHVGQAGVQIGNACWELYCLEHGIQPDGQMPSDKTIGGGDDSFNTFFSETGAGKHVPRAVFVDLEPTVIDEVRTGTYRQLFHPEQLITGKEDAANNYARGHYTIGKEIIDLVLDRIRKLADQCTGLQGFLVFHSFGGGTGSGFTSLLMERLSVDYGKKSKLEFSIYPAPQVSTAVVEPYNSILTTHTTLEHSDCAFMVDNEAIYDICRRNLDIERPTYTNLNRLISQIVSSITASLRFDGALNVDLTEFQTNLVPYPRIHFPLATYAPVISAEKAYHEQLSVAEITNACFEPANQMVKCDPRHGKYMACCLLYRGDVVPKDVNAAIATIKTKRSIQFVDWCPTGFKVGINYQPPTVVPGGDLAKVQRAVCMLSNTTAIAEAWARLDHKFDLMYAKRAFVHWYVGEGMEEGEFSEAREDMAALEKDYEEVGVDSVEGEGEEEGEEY
Sequence of KIFC1 (Q9BVA1 whole entry partner): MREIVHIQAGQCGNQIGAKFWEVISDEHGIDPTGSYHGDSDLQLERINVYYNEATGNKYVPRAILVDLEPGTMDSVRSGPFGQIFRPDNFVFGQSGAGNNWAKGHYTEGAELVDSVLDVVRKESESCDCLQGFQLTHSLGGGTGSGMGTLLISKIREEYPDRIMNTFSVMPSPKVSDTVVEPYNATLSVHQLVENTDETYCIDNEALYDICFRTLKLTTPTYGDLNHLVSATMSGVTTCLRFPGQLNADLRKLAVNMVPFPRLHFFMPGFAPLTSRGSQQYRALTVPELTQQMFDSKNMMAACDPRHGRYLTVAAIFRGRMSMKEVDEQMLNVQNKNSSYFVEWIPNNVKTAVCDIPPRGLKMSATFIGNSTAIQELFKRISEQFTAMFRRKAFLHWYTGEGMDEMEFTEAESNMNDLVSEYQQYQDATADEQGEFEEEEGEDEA

CCCc1cc(C(=O)N[C@H](Cc2ccc(-c3cccc(OC(F)(F)F)c3)nc2)C(=O)N[C@@H]2CCNC2)sc1C [AZ82]
centrosome declustering [1]: causes centrosome declustering | Ki [2]: 43 nM

C[C@@]1(CO)[C@H](O)CC[C@@]2(C)[C@H]1CC[C@H]1C[C@@H]3C[C@@]12CC[C@]3(O)CO [aphidicolin]
time to fill the scratch wound [3]: 18 h | invasion capacity [4]: increase in invasion capacity | cells harboring extra centrosomes ([5]; 5 μg/ml for 24 h): ~60% | extra centrosomes per cell ([5]; 24 h treatment, after wash-out): 6-8 per cell | vimentin levels (immunoblot) ([5]; following aphidicolin treatment): significant increase in vimentin levels

brominated noscapine
spindle phenotype and cell death [6]: highly aberrant multipolar spindles that succumb to cell death | spindle multipolarity and cell death [7]: did not exhibit any multipolarity or cell death
